Results on four substances are retold here after patent US7323542B2, “Bone targeting peptides” (University of Virginia Patent Foundation, priority 2002, dated 2008).

Assay [1] has as its system C4-2 cells binding to huBMEC. The assay is described as follows: Adhesion of 3H-thymidine labeled C4-2 cancer cells to huBMEC lawns in presence of peptide. Type of assay: cell-based, human. Particulars: for PERCENT OF CONTROL AT 2H ADHESION: C4-2 cells on huBMEC; for inhibition of the ability of C42 cells to bind to huBMEC: in words, based on Table 1. From the text:
(§1) In accordance with one embodiment a method for inhibiting the growth of tumors is provided. The method comprises the steps of contacting tumor cells with a composition comprising an amino acid sequence selected from the group consisting of SEQ ID NOs: 1-24. As described in Example 3 the peptides of the present invention have been studied for their ability to prevent cancer cells from binding to human bone marrow endothelial cells (huBMEC). Either androgen dependent cancer cells (LNCaP cells) or androgen independent cancer cells (C42 cells) were labeled with 3H-thymidine and placed in contact with huBMEC in the presence of varying concentrations of bone targeting peptides R1 (SEQ ID NO: 25), R3 (SEQ ID NO: 27), L13 (SEQ ID NO: 22) and L19 (SEQ ID NO: 24). The cells were washed and the percent of acid precipitatable counts bound to huBMEC was determined (See Table 1). The control, where no bone targeting peptide was added generated approximately 18% acid ppt counts bound. […] Accordingly, these peptides in particular may be formulated a pharmaceutical compositions to prevent metastases to the bone. The composition may further include known anti-cancer agents such as chemotherapeutic agents. The compositions can be administered to a patient using any of the standard routes including oral and parenteral. In one preferred embodiment the compositions are administered locally by injection.
(§2) The initial interaction of metastatic cells is with the surface of the organ that will be colonized. Presumably, this interaction is through cell-matrix or cell-cell interaction. There are at least two potential targets for prostate cancer cells to interact, bone stromal cells and bone marrow endothelial cells. Briefly, lawns of target cells (D1 or huBMEC) will be established in 24-well dishes by seeding ˜5×10^4 cells per well 2-3 days before the adhesion experiment. At this time, subconfluent (˜50%) cultures of test cells (LNCaP, C4-2, DU145 and PC-3) will be placed into media with 1 uCi/ml tritiated thymidine. Two to three days later, labeled cells will be removed using a 5-10 mM EDTA/PBS solution and 1×10^5 test cells will be added to confluent lawns of target cells. Three groups are envisioned for each cell line 1) no peptide, 2) peptide at ED50 and 3) peptide at ED90.
(§3) There will also be an aliquot of labeled cells set aside to determine total acid precipitablc counts added. Adhesion assays will proceed for either 1 or 2 hours. Adherent cells will be separated from non-adherent cells by 2 rounds of 0.5 ml washes with PBS at 100 rpm for 2 minutes per wash. The remaining cells will then be fixed in 10% TCA for 10 min. with gentle shaking followed by hydrolysis of the residue in 0.5 ml of 2 N NaOH. The NaOH will be neutralized by 100 ul of concentrated HCl. The samples will then be counted in a liquid scintillation apparatus. The data will be analyzed by the Mellon Prostate Center Biostatistics Core to determine differences in growth and the ED50 and ED90 for each peptide if reasonable.
(§4) Using this adhesion assay the bone targeting peptides have been studied for their ability to prevent cancer cells from binding to huBMEC. Either androgen dependent cancer cells (LNCaP cells) or androgen independent cancer cells (C42 cells) were labeled with 3H-thymidine and placed in contact with huBMEC in the presence of varying concentrations of bone targeting peptides R1 (SEQ ID NO: 25), R3 (SEQ ID NO: 27), L13 (SEQ ID NO: 22) and L19 (SEQ ID NO: 24). The cells were washed and the percent of acid precipitatable counts bound to huBMEC was determined (See Table 1). The control, where no bone targeting peptide was added, is not shown, but generated approximately 18% acid ppt counts bound. […] Accordingly, these peptides in particular may be formulated a pharmaceutical compositions to prevent metastases to the bone.

In assay [2] the test system is LNCaP cells binding to huBMEC. The assay is described as follows: Adhesion of 3H-thymidine labeled LNCaP cancer cells to huBMEC lawns in presence of peptide. The following applies: for PERCENT OF CONTROL AT 2H ADHESION: LNCaP cells on huBMEC; for inhibition of the ability of LNCaP cells to bind to huBMEC: in words, based on Table 1. Type of assay: cell-based, human.
Text: as §1, §2, §3, §4

The subject of assay [3] is bone marrow derived mesenchymal cells and human bone marrow endothelial cells. Kind of assay: Binding of biotin-coupled peptides to cells in vitro, avidin-FITC detection. Type of assay: cell-based. An excerpt:
The cells currently investigated for binding to the peptides of the present invention were chosen because they are derived from bone marrow and are characteristic of mesenchymal cells that are pluripotential and behave as osteoprogenitors. The cells are capable of differentiating into bone cells in vitro and retain their osteogenic properties after transplantation in vivo into syngeneic mice. The human bone marrow endothelial cells are non-osteogenic and, therefore, are in contrast to the collagen type I, and mineral, producing properties of mesenchymal cells. The bone marrow endothelial cells serve the purpose of having a cell that is derived from the endothelial lining of the bone marrow cavity i.e. a cell from the endosteal surface. Although these are not the only cells that can be used, they will form the basis of the majority of the present studies with cells. […]
Peptides have been synthesized with a gly-gly-gly linker and coupled to biotin. […] Fluorescence was found at attachment sites of cellular processes to the substratum. […]
Control experiments with non-biotinylated peptides will ensure that binding avidin-FITC is specific to the properties of the peptide that target the cell surface or its extracellular matrix. No non-specific binding has been encountered so far with the three peptide sequences that have been explored and, there was no background fluorescence.

For assay [4], the system named is rib bone. The assay is described as follows: Localisation of peptides to rib tissue. From the text: The peptides may have different effects depending on cell types from different tissues. The need to explore cells from other tissues, such as fibroblasts, adipocytes or muscle cells, may be determined by the location of the peptide ligands in area of tissue that are not directed within bone but there are adjacent to it. The case in point is that one peptide so far, L19, has been located to a tissue, that has not been identified yet, which, is adjacent to bone in rib. […] Analysis of cell types other than marrow mesenchymal or endothelial cells will help identify the specific cells, and their matrices that are targeted by individual peptides.

For the substance “ALA- THR- TRP-SER-HIS-HIS-LEU-SER-SER-ALA-GLY-LEU (ATWSHHLSSAGL; listed as Homo sapiens) [R3]”, the “PERCENT OF CONTROL AT 2H ADHESION” value is 17.9 % of control in assay [1] (peptide 50 μM), 7.9 % of control in assay [1] (peptide 100 μM), 14.7 % of control in assay [2] (peptide 50 μM) and 3.8 % of control in assay [2] (peptide 100 μM). Further, the “inhibition of the ability of C42 cells to bind to huBMEC” value (“inhibition of the ability of C42 cells” for short) in assay [1] is “substantially inhibits”. Moreover, the “inhibition of the ability of LNCaP cells to bind to huBMEC” value in assay [2] is “substantially inhibits”.
With “ASN- TYR-SER-HIS-LEU-ARG- VAL-LYS-LEU-PRO-THR-PRO (NYSHLRVKLPTP; listed as Homo sapiens) [R1]”, the “binding to cells in culture” value in assay [3] is listed as “binds to cells in culture”. In addition, the “PERCENT OF CONTROL AT 2H ADHESION” value is 9.0 % of control in assay [1] (peptide 50 μM), 9.6 % of control in assay [1] (peptide 100 μM), 14.7 % of control in assay [2] (peptide 50 μM) and 9.9 % of control in assay [2] (peptide 100 μM).
Consider “ASP-SER-SER-ASN-PRO-ILE-PHE- TRP-ARG-PRO-SER-SER (DSSNPIFWRPSS; listed as Homo sapiens) [L19]”, for which the “binding to bone (in rib)” value in assay [4] is “not detected in the bone itself”. Further, the “tissue localisation of peptide” value in assay [4] (preliminary) is on record as “localized to a soft tissue adjacent to rib”. Further, the “PERCENT OF CONTROL AT 2H ADHESION” value in assay [1] (peptide 50 μM) is given as 15.6 % of control; in assay [1] (peptide 100 μM), 18.4 % of control; in assay [2] (peptide 50 μM) it was 3.3 % of control; in assay [2] (peptide 100 μM) it was 4.1 % of control. For the same substance, the “inhibition of the ability of C42 cells” value in assay [1] was “substantially inhibits”.
Take “SER-GLY-HIS-GLN-LEU-LEU-LEU-ASN-LYS-MET-PRO-ASN (SGHQLLLNKMPN; listed as Homo sapiens) [L13]”: in assay [4], the “binding to bone (in rib)” value was “binds to rib bone”. The “PERCENT OF CONTROL AT 2H ADHESION” value in assay [1] (peptide 50 μM) was 5.8 % of control; in assay [1] (peptide 100 μM), 4.2 % of control; in assay [2] (peptide 50 μM), 3.8 % of control; in assay [2] (peptide 100 μM), 2.8 % of control. In addition, the “inhibition of the ability of C42 cells” value in assay [1] is “substantially inhibits”. For the same substance, in assay [2], the “inhibition of the ability of LNCaP cells to bind to huBMEC” value is on record as “substantially inhibits”.
